Experimental data reported in patent US20240400591A1 (Jacobio Pharmaceuticals Co., Ltd., priority 2021, published 2024).

target: T1, His-p53 Y220C (94-294) protein (Homo sapiens, UniProt P04637, Y220C); assay: In vitro DNA binding assay (HTRF); assay type: biochemical; settings: % activation normalized to 2 μM Ref-1a high control
T1 construct: His-p53 Y220C (94-294) protein

Compared with `CN1CCC(Nc2cccc3c(CC(F)(F)F)c(C#CCNc4ccc(P(C)(C)=O)cc4)sc23)CC1` [Example 9, dimethyl(4-((3-(7-((1-methylpiperidin-4-yl)amino)-3-(2,2,2-trifluoroethyl)benzo[b]thiophen-2-yl)prop-2-yn-1-yl)amino)phenyl)phosphine oxide], `CN1CCC(Nc2cccc3c(CC(F)(F)F)c(C#CCNc4cccc5cc[nH]c45)sc23)CC1` [Example 29, N-(3-(7-((1-methylpiperidin-4-yl)amino)-3-(2,2,2-trifluoroethyl)benzo[b]thiophen-2-yl)prop-2-yn-1-yl)-1H-indol-7-amine] is 56-fold higher in EC50: 114 nM for the first, 6400 nM for the second. The first is the more potent here.

Compared with `CCP(=O)(CC)c1ccc(NCC#Cc2sc3c(N[C@@H]4CCN(C5CCOCC5)C[C@@H]4F)cccc3c2CC(F)(F)F)c(OC)c1` [Example 156, diethyl(4-((3-(7-(((3S,4R)-3-fluoro-1-(tetrahydro-2H-pyran-4-yl)piperidin-4-yl)amino)-3-(2,2,2-trifluoroethyl)benzo[b]thiophen-2-yl)prop-2-yn-1-yl)amino)-3-methoxyphenyl)phosphine oxide], `CCP(=O)(CC)c1ccc(NCC#Cc2sc3c(NC4CCN(C)CC4F)cccc3c2CC(F)(F)F)c(OC)c1` (stereo not shown) [Example 35, diethyl(4-((3-(7-(((Z)-3-fluoro-1-methylpiperidin-4-yl)amino)-3-(2,2,2-trifluoroethyl)benzo[b]thiophen-2-yl)prop-2-yn-1-yl)amino)-3-methoxyphenyl)phosphine oxide] is 2.8-fold lower in EC50: 108 nM for the first, 38 nM for the second. The second is the more potent here.

Going from `COc1cc(S(C)(=O)=O)ccc1NCC#Cc1sc2c(NC3CCN(CC(F)(F)F)CC3)cccc2c1CC(F)(F)F` [Example 37, N-(2-(3-((2-methoxy-4-(methylsulfonyl)phenyl)amino)prop-1-yn-1-yl)-3-(2,2,2-trifluoroethyl)benzo[b]thiophen-7-yl)-1-(2,2,2-trifluoroethyl)piperidin-4-amine] to `CN1CCC(Nc2cccc3c(CC(F)(F)F)c(C#CCNc4ccc(S(C)(=O)=O)cc4OCC(F)(F)F)sc23)CC1` [Example 13, 1-methyl-N-(2-(3-((4-(methylsulfonyl)-2-(2,2,2-trifluoroethoxy)phenyl)amino)prop-1-yn-1-yl)-3-(2,2,2-trifluoroethyl)benzo[b]thiophen-7-yl)piperidin-4-amine], the EC50 falls from 3880 nM to 170 nM (23-fold). The second is the more potent here.

`C[C@@H](C#Cc1sc2c(NC3CCN(C)CC3)cccc2c1CC(F)(F)F)Nc1ccc(S(N)(=O)=O)cc1` [Example 45, (S)-4-((4-(7-((1-methylpiperidin-4-yl)amino)-3-(2,2,2-trifluoroethyl)benzo[b]thiophen-2-yl)but-3-yn-2-yl)amino)benzenesulfonamide] and `C[C@H](C#Cc1sc2c(NC3CCN(C)CC3)cccc2c1CC(F)(F)F)Nc1ccc(S(N)(=O)=O)cc1` [Example 44, (R)-4-((4-(7-((1-methylpiperidin-4-yl)amino)-3-(2,2,2-trifluoroethyl)benzo[b]thiophen-2-yl)but-3-yn-2-yl)amino)benzenesulfonamide] are within 1.5-fold of each other in EC50: 2790 nM for the first, 2910 nM for the second.

Compared with `COc1cc(P(C)(C)=O)ccc1NCC#Cc1sc2c(N[C@H]3CCN(C)C[C@H]3Cl)cccc2c1CC(F)(F)F` [Example 144, (3R,4S)-3-chloro-N-[2-[3-(4-dimethylphosphoryl-2-methoxy-anilino)prop-1-ynyl]-3-(2,2,2-trifluoroethyl)benzothiophen-7-yl]-1-methyl-piperidin-4-amine], `COc1cc(P(C)(C)=O)cc(F)c1NCC#Cc1sc2c(N[C@@H]3CCN(C)C[C@@H]3F)cccc2c1CC(F)(F)F` [Example 206, (3-fluoro-4-((3-(7-(((3S,4R)-3-fluoro-1-methylpiperidin-4-yl)amino)-3-(2,2,2-trifluoroethyl)benzo[b]thiophen-2-yl)prop-2-yn-1-yl)amino)-5-methoxyphenyl)dimethylphosphine oxide] is 2-fold higher in EC50: 102 nM for the first, 205 nM for the second. The first is the more potent here.

First: COc1cc(S(C)(=O)=O)ccc1NCC#Cc1sc2c(NC3CCN(C)CC3F)cccc2c1CC(F)(F)F (stereo not shown) [Example 2, (Z)-3-fluoro-N-(2-(3-((2-methoxy-4-(methylsulfonyl)phenyl)amino)prop-1-yn-1-yl)-3-(2,2,2-trifluoroethyl)benzo[b]thiophen-7-yl)-1-methylpiperidin-4-amine]
Second: COc1cc(S(C)(=O)=O)ccc1NCC#Cc1sc2c(NCC3CCN(C)CC3)cccc2c1CC(F)(F)F [Example 56, 2-(3-((2-methoxy-4-(methylsulfonyl)phenyl)amino)prop-1-yn-1-yl)-N-((1-methylpiperidin-4-yl)methyl)-3-(2,2,2-trifluoroethyl)benzo[b]thiophen-7-amine]
The EC50 of the first is 6.5-fold lower: 44 nM for the first, 284 nM for the second.

Compared with `CN1CC[C@@H](Nc2cccc3c(CC(F)(F)F)c(C#CCNc4ccc(P(C)(C)=O)nc4C#N)sc23)[C@@H](F)C1` [Example 224, 6-(dimethylphosphoryl)-3-((3-(7-(((3S,4R)-3-fluoro-1-methylpiperidin-4-yl)amino)-3-(2,2,2-trifluoroethyl)benzo[b]thiophen-2-yl)prop-2-yn-1-yl)amino)picolinonitrile], `CN1CC[C@@H](Nc2cccc3c(CC(F)(F)F)c(C#CCNc4cc(P(C)(C)=O)n[nH]4)sc23)[C@@H](F)C1` [Example 204, (5-((3-(7-(((3S,4R)-3-fluoro-1-methylpiperidin-4-yl)amino)-3-(2,2,2-trifluoroethyl)benzo[b]thiophen-2-yl)prop-2-yn-1-yl)amino)-1H-pyrazol-3-yl)dimethylphosphine oxide] is 9.4-fold higher in EC50: 87 nM for the first, 816 nM for the second. The first is the more potent here.

First: COc1nc(P(C)(C)=O)cnc1NCC#Cc1sc2c(N[C@@H]3CCN(C)C[C@@H]3F)cccc2c1CC(F)(F)F [Example 209, (5-((3-(7-(((3S,4R)-3-fluoro-1-methylpiperidin-4-yl)amino)-3-(2,2,2-trifluoroethyl)benzo[b]thiophen-2-yl)prop-2-yn-1-yl)amino)-6-methoxypyrazin-2-yl)dimethylphosphine oxide]
Second: COc1cc(P(=O)(C2CC2)C2CC2)ccc1NCC#Cc1sc2c(N[C@H]3CCN(C)C[C@H]3F)cccc2c1CC(F)(F)F [Example 140, dicyclopropyl(4-((3-(7-(((3R,4S)-3-fluoro-1-methylpiperidin-4-yl)amino)-3-(2,2,2-trifluoroethyl)benzo[b]thiophen-2-yl)prop-2-yn-1-yl)amino)-3-methoxyphenyl)phosphine oxide]
The EC50 of the first is 1.6-fold higher: 211 nM for the first, 129 nM for the second. The second is the more potent here.

Compared with `CN1CCC(Nc2cccc3c(CC(F)(F)F)c(C#CCNc4ccc(S(C)(=O)=O)cc4OCF)sc23)CC1` [Example 11, N-(2-(3-((2-(fluoromethoxy)-4-(methylsulfonyl)phenyl)amino)prop-1-yn-1-yl)-3-(2,2,2-trifluoroethyl)benzo[b]thiophen-7-yl)-1-methylpiperidin-4-amine], `CN1CCC(Nc2cccc3c(CC(F)(F)F)c(C#CCNc4ccc(S(C)(=O)=O)c5cc[nH]c45)sc23)CC1` [Example 31, N-(3-(7-((1-methylpiperidin-4-yl)amino)-3-(2,2,2-trifluoroethyl)benzo[b]thiophen-2-yl)prop-2-yn-1-yl)-4-(methylsulfonyl)-1H-indol-7-amine] is 4.7-fold higher in EC50: 114 nM for the first, 535 nM for the second. The first is the more potent here.

Compound `CN1CCC(Nc2cccc3c(CC(F)(F)F)c(C#CCNc4cccc5c(C6CCNCC6)c[nH]c45)sc23)CC1` [Example 30, N-(3-(7-((1-methylpiperidin-4-yl)amino)-3-(2,2,2-trifluoroethyl)benzo[b]thiophen-2-yl)prop-2-yn-1-yl)-3-(piperidin-4-yl)-1H-indol-7-amine] has an EC50 of 452 nM.
